Experimental data reported in patent publication US4542153A, “Methods for changing calcium metabolism within the cells of a mammal” (The Ohio State University Research Foundation, priority 1983, dated 1985).

Legend:
[1] = tested acutely and subchronically; earlier published work; cited from earlier work
[2] = tested on: thoracic aorta strips contracted with norepinephrine; experiment: Vasodilator activity: norepinephrine-contracted aortic strips; type: cell-based, male Sprague-Dawley rats
Excerpt: (§1) Pr-MDI, bu-MDI, Q-bu-MDI and the compounds of Formulae IIIA, IIIB and IVA having the two R1 groups together forming a methylene group, each R3 a methyl group and R2 an n-propyl group or n-butyl group (the compounds of Formula III are hereinafter abbreviated as sat-pr-MDI and sat-bu-MDI respectively, reference being made where necessary to the cis isomer of Formula III A or the trans isomer of Formula III B while the compounds of Formula IV are similarly referred to as cis sat-Q-pr-MDI and cis sat-Q-bu-MDI) were tested for vasodilator activity by the method of R. F. Furchgott and S. Bhadrakom, J. P. Pharmacol. Ex. Ther., 108, 129-143 (1953).
(§2) The vasodilator activity tests were conducted on male Sprague-Dawley rats, obtained from Harlan Industries, Inc., Cumberland, Indiana. The rats, weight 250-300 g., were sacrified by cervical dislocation and a 2.5 cm. segment of the thoracic aorta was removed and rinshed in physiological buffer. Each aortic segment was cleaned of connective tissue and cut spirally two yield to strips, each 3 by 15 mm. Each strip was mounted isometrically under a tension of 1 g in a 10 ml. tissue bath thermostatically maintained at 37° C. and containing a normal physiological solution aerated with a 95% oxygen/5% carbon dioxide mixture. Forces generated by the strip were monitored using a Grass FT03 isometric transducer coupled to a Grass module 7D polygraph recorder, both the transducer and the recorder being obtained from Grass Instrument Co., of Quincy, Mass.
(§3) After the aortic tissue had been allowed to equilibriate for 1-1.5 hours in the normal physiologic solution, tissue contraction was induced by introducing either 10^-7 M norepinephrine or 40mM potassium chloride buffer to the tissue bath.
(§4) To avoid interference by loss of tension due to time dependent tissue fatigue, separate preliminary experiments were performed to determine the degree of tissue relaxation due to such fatigue and the value of the control tension generated by norepinephrine or potassium chloride prior to the addition of the test compounds was adjusted whenever the duration of the experiment was such that fatigue could be expected to cause more than a 6% loss of tension. […] All concentrations mentioned hereinafter represent the final concentration of the test compound after dilution in the tissue bath.
(§5) The figures of concentration against percent response data obtained from each aortic tissue were transformed to its appropriate probit value and IC50 values were then estimated using linear regression analysis. The normal physiological solution contained 6.9 g/l of sodium chloride, 0.35 g/l of potassium chloride, 0.11 g/l of magnesium chloride hexahydrate, 0.138 g/l of sodium dihydrogen phosphate, 2.1 g/l of sodium bicarbonate, 0.01 g/l of EDTA, 0.368 g/l of calcium chloride dihydrate and 2.0 g/l of dextrose. The high potassium buffers were obtained by substituting potassium chloride for sodium chloride on an equimolar basis to maintain tonicity.

[3] = tested on: spontaneously beating right atria; experiment: Effects on isolated guinea pig atria: spontaneously beating right atria; type: cell-based
Excerpt: (§6) The effects of pr-MDI, bu-MDI and Q-bu-MDI on the mechanical and electrical behavior of isolated guinea pig atria were investigated by the method of H. Nawrath, J. Pharmacol. Exp. Ther., 16, 176-182 (1980). The compounds were investigated over the concentration range of 10^-8 to 3×10^-4 M.
(§7) English short-haired guinea pigs, supplied by Carr Animal Supply, of Powell, Ohio, weighing 300-600 g. were killed by a blow on the head and both atria of the animal were quickly dissected out and suspended in a water-jacketed organ bath containing Krebs-Henseleit solution through which a 95% oxygen/5% carbon dioxide mixture was bubbled at 32° C. The solution contained 6.92 g/l of sodium chloride, 0.35 g/l of potassium chloride, 0.29 g/l of magnesium […] heptahydrate, 0.3 g/l of calcium chloride dihydrate, 0.16 g/l of potassium dihydrogen phosphate, 2.1 g/l of sodium bicarbonate and 2.1 g/l of dextrose. The contractile force generated by the isolated artria was recorded isometrically under a 500 mg. preload using a Narco Biosystems force transducer connected to a physiograph DMP-4B recorder, both the transducer and the recorder being obtained from E & M Instrument Co. of Houston, Texas.
Spontaneously beating right atria were tested in a similar manner.

isolated left atria = experiment: Effects on isolated guinea pig atria: electrically driven left atria; type: cell-based
Excerpt: as §6, §7
The isolated left atria were electrically driven by square wave impulses of 3 milliseconds duration at a frequency of 3 Hz. and a voltage of twice the threshold voltage, delivered by a Grass S9 stimulator obtained from Grass Instrument Co., of Quincy, Massachusetts. Two platinum electrodes were used for the stimulation, the anode being in direct contact with the atrial tissue while the cathode had the form of a ring suspended 2.5 centimeters above the anode. Before redetermination of the threshold voltage and generation of a predrug (control) frequency-force profile over the range of 1-5 Hz., an equilibriation time of one hour was allowed. The system was then re-equilibriated at 3 Hz. and twice the threshold voltage as before, then one cumulative dose-response curve of contractile force for one test compound was obtained, followed immediately by redetermination of the threshold voltage and the generation of a post-drug frequency-force profile.
A paired Student's t-test was used to compare predrug and postdrug threshold voltages for each left atrial preparations as well as to compare developed tension at each frequency in the profile of each left atrial preparation. P values of less than 0.05 were considered statistically significant.

mice = experiment: Toxicity Tests (intraperitoneal LD50); type: in vivo; details: i.p., table: mean values and 95% confidence limits
[4] = tested on: thoracic aorta strips contracted with potassium chloride; experiment: Vasodilator activity: potassium chloride-contracted aortic strips; type: cell-based, male Sprague-Dawley rats; details: rat aorta contracted with 40 mM potassium chloride; read-out: IC50 (mean and range of SEM) KCl
Excerpt: as §1, §2, §3, §4, §5

[5] = tested on: calcium-induced arrhythmias in rats; experiment: Calcium-induced arrhythmias (CaCl2 injected i.v. into anesthetized rats)
Excerpt: The experimental method used was that described in Lynch J. J., Rahwan R. G., Witiak D. T.: Effects of 2-substituted-3-dimethylamino-5,6-methylenedioxyindenes on calcium-inducedarrhythmias, J. Cardiovasc. Pharmacol. 3: 49-60 (1981). Male Sprague-Dawley rats weighing 180-250 grams were anesthetized with sodium pentobarbital and a cannula was inserted into the left jugular vein for drug administration. Electrocardiograph equipment was connected to the rat and the lead II was continuously monitored. The compound under test, dissolved in 5% dextrose solution, was administered into the jugular vein of anesthetized rats over a 40 second period. Ten minutes after this treatment, an acute dose of 1 ml/kg of a 10% CaCl2.2H2 O solution was injected into the jugular vein over a period of 10 seconds. The arrhythmias resulting from the calcium administration were graded according to the following criteria: (a) initial change in heart rate following calcium administration; (b) incidences of sinoatrial block, atrioventricular block, ectopic beats, and ventricular flutter and fibrillation; (c) time required for reversion to control ECG; and (d) incidence of mortality.

[6] = tested on: chloroform anoxia arrhythmia in mice; experiment: Chloroform Anoxia Assay (chloroform-induced ventricular fibrillation); type: in vivo, Female Swiss albino mice; details: for ED50: i.p., 10 min before chloroform, table: mean values and 95% confidence limits, 10 min
Method: The same four compounds were tested for their ability to protect mice from chloroform anoxia by the classical chloroform inhalation procedure described in Lawson J. W.: Antiarrhythmic activity of some isoquinoline derivatives determined by a rapid screening procedure in the mouse, J. Pharmacol. Exp. Ther. 160: 22-31, (1968). In this method, chloroform inhalation leading to respiratory arrest produces ventricular fibrillation. Female Swiss albino mice procured from Laboratory Supply Company, Indianapolis, Indiana, weighing 16-22 g, were pretreated intraperitoneally with the compound under test dissolved in a 5% dextrose solution 10 minutes before exposure to chloroform in a closed container containing chloroform-saturated cotton. The mice were removed from the chloroform atmosphere immediately after respiratory arrest and the electrocardiograph lead II monitored. The ED 50 and 95% confidence limits calculated for the anti-arrhythmic agents by the standard method of Litchfield and Wilcoxon.

## CCCCC1=Cc2cc3c(cc2C1N(C)C)OCO3.Cl (centres unmarked) [bu-MDI, 2-butyl-5-6methylenedioxyindene-1-dimethylammonium hydrochloride, reference compound]
[1]
  toxicity: remarkable lack of toxicity
[2]; norepinephrine- or KCl-treated tissue
  relaxation of the aortic tissue: relaxed the aortic tissue
[2]; norepinephrine-treated aortic tissue
  comparative vasodilator activity, norepinephrine-treated tissue: considerably more active than Q-bu-MDI
[2]; rat aorta contracted with 10^-7 M norepinephrine, read-out: IC50 (mean and range of SEM) Norepinephrine
  IC50: 74.1 µM
[3]; 10^-4 M and 3×10^-4 M
  time to sustained peak effect, right atria, highest concentrations: 5 to 10 min
[3]; 10^-8 to 3×10^-4 M
  effect on spontaneous atrial rate: substantially identical to that of Q-bu-MDI
[3]; except at 3×10^-4 M for Q-bu-MDI
  effect on the contractile force of right atria: much greater negative inotropy
Isolated left atria; 3×10^-4 M
  effect on frequency-force profile/relation of the stimulated left atrium: significant depression of the frequency-force profile
  effect on threshold voltage required to drive the atria: significantly decreased the threshold voltage
Isolated left atria; 10^-8 to 3×10^-4 M
  effect on contractile force of the electrically stimulated left atrium: considerably greater than that of Q-bu-MDI
mice
  LD50: 185 mg/kg
[4]
  IC50: 20.3 µM
[5]; earlier work of applicants
  potency and safety against calcium-induced arrhythmia versus verapamil: more potent and safer then verapamil
[5]; i.v., 10 min before CaCl2
  concentration effective against calcium-induced arrhythmias: 3.75 mg/kg
[5]; i.v., Q-bu-MDI at 0.5 mg/kg, pr-MDI and bu-MDI at 3.75 mg/kg
  deleterious side effects: without deleterious side effects
[6]; ED50 from chloroform anoxia, LD50 i.p.
  Therapeutic Index (LD50/ED50): 4.2
[6]; earlier work of applicants
  potency against chloroform/anoxia-induced arrhythmia versus quinidine: more potent than quinidine
[6]; n = 40, hydrochloride
  ED50: 44 mg/kg
[6]; n = 40, listed as Bu--MDI, hydrochloride
  ED50: 44.0 mg/kg
[6]; quinidine = 1.00, chloroform anoxia
  Antiarrhythmic Potency: 1.52
